Results published in patent US10363231B2, “Compounds and methods of treating ocular disorders” (CASE WESTERN RESERVE UNIVERSITY, priority 2014, dated 2019).
Read-outs that look alike come from different tables or passages of the source.

Assays:
Abca4^−/−Rdh8^−/− mice [1] = assay: Light-induced acute retinal degeneration in Abca4−/−Rdh8−/− mice (OCT, 11-cis-retinal, ERG); type: in vivo; conditions: 2 mg; dark 24 h, then 10,000 lux 1 h
RPE65 = molecular target: T1, RPE65 (Bos taurus, UniProt Q28175); assay: Retinoid isomerase activity assay (11-cis-retinol production in RPE microsomes); type: biochemical, Bovine
T1 construct: from tissue; host or cells: bovine retinal pigment epithelium (RPE) microsomes
T1 sequence (Q28175 whole entry): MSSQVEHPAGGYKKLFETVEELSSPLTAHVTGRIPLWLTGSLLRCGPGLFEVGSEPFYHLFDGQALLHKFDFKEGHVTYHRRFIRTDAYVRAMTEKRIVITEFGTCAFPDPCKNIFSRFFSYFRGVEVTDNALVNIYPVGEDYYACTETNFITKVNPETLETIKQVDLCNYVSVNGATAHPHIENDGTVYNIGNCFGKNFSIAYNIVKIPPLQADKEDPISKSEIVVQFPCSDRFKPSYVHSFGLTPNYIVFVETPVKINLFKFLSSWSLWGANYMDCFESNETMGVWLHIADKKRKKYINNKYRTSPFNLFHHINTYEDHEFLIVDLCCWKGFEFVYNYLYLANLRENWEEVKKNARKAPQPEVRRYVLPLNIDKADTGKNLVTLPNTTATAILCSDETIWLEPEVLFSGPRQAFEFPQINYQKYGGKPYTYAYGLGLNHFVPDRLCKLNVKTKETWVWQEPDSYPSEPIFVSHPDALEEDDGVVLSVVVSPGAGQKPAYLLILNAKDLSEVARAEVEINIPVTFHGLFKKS
Description: (§1) Bovine RPE microsomes were isolated from RPE homogenates by differential centrifugation as previously described. The resulting microsomal precipitate was resuspended in 10 mM Bis-Tris propane/HCl buffer, pH 7.4, to achieve a total protein concentration of […]. Then the mixture was placed in a quartz cuvette and irradiated for 6 min at 4° C. with a ChromatoUVE transilluminator (model TM-15; UVP) to eliminate residual retinoids. After irradiation, DTT was added to the RPE microsomal mixture to achieve a final concentration of 5 mM.
[…] The resulting mixture was pre incubated at room temperature for 5 min. Then 1 μl of all-trans-retinol (in DMF, final concentration 20 μM) was added. The resulting mixture was incubated at 37° C. for 15 min to 2 h. The reaction was quenched by adding 300 μl of methanol, and products were extracted with 300 μl of hexanes. Production of 11-cis-retinol was quantified by normal phase HPLC with 10% (v/v) ethyl acetate in hexanes as the eluent at a flow rate of 1.4 ml·min^−1. Retinoids were detected by monitoring their absorbance at 325 nm and quantified based on a standard curve representing the relationship between the amount of 11-cis-retinol and the area under the corresponding chromatographic peak.
Primary amines of compounds derived from the aldehydes were subsequently tested for their ability to inhibit the RPE65-dependent retinoid isomerization reaction in dose- and time dependent reactions as exemplified by QEB-B-001 (FIG. 3B). Amines were incubated with RPE microsomes in the presence of all-trans-retinol and the 11-cis-retinoid binding protein, CRALBP.
Progress of the enzymatic reaction was monitored by HPLC separation of retinoids and quantification of 11-cis-retinol with a decrease of 11-cis-retinol production reflecting inhibition of RPE65 by a tested amine. […] This moderate inhibition could be enhanced by shortening the polyene chain length (TEA amines) or diminished by introducing an extra positive charge into the tested compounds (QEA-G amines).

LRAT = molecular target: T2, LRAT (Bos taurus, UniProt Q9BGL2); assay: LRAT activity assay with bovine RPE microsomes (esterification of the corresponding primary alcohols); type: biochemical; conditions: percentage of the corresponding primary alcohol esterified by LRAT in 1 h at 37° C; 10 μM; RPE microsomes
T2 construct: incubated with RPF microsomes that served as a source of LRAT enzymatic activity; from tissue; host or cells: bovine retinal pigment epithelium (RPE) microsomes
T2 sequence (Q9BGL2 1-230): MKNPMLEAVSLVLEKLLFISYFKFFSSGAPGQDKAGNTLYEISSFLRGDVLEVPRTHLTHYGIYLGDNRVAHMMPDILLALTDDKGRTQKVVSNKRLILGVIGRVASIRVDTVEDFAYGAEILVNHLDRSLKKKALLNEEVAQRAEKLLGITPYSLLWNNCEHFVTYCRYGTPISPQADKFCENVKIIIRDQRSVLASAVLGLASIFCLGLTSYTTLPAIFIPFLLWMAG
Description: as §1
Two μl of a synthesized primary alcohol or amine dissolved in DMF (final concentration 10 μM) and 2 μl of 1,2-diheptanoyl-sn-glicerol-3-phosphocholine (water, final concentration 1 mM) were added to 200 μl of 10 mM Bis-Tris propane/HCl buffer, pH 7.4, containing 150 μg of RPE microsomes and 1% (v/w) BSA. The resulting mixture was incubated at 37° C. for 1 h. The reaction was quenched by adding 300 μl of methanol. Most reaction products were extracted with 300 μl of hexanes, except for products from the QEA-C-006 and QEA-G groups which were extracted by adding 300 μl of ethyl acetate and 300 μl of water.
Reaction products were separated and quantified by normal phase HPLC (Agilent Sil 5 μm, 4.6 mm×250 mm) in stepwise gradient of ethyl acetate in hexanes (0-15 min, 10%; 20-30 min, 30%) at a flow rate of 1.4 ml·min^−1.
The properties of retinoid derivatives were examined by two standard enzymatic tests, the […] and retinoid isomerization assays. To identify substrates of LRAT, aldehydes were reduced by sodium borohydrate to their corresponding primary alcohols that then were directly used in the esterification assay (FIG. 2B).
The alcohols were incubated with RPF microsomes that served as a source of LRAT enzymatic activity. Products of the enzymatic reaction as well as the remaining substrates were extracted with organic solvents and analyzed by HPLC. The ratio between a substrate and its esterified form was used to measure enzymatic activity efficiency, based on equivalent UV absorption of the substrate and product at their specific UV maxim wavelengths. Compounds classified as ‘good’ LRAT substrates converted at least 50% of their available alcohol substrates into corresponding esters under these experimental conditions, whereas marginal LRAT substrates were converted at less than 5%. Alcohols with a 5-50% conversion ratio were classified as weak substrates. Among 35 tested compounds, 23 were categorized as good and 9 as weak substrates; 3 compounds were not esterified by LRAT (Table 1 and FIG. 2C). […] Moreover, breaking double bond conjugation along the polyene chain or deletion of a C9 and/or a C13 methyl group also was allowed.

[2] = Analysis of retinoid composition in mouse tissues: amide forms in liver by HPLC; type: in vivo, mice; conditions: oral gavage; for Protection by amide in liver: 4-week-old Abca4−/−Rdh8−/− mice, dark 24 h, liver extracts by HPLC; for amidation in vivo (accumulation of amide forms in mouse liver): liver HPLC
Description: (§2) Abca4^−/−Rdh8^−/− double knockout mice were generated as previously described. Mice were housed in the animal facility at the School of Medicine, Case Western Reserve University, where they were maintained under either complete darkness or in a 12-h light (˜300 lux) and 12-h dark cycle. All tested primary amines were suspended in 100 μl of soybean oil with less than 10% (v/v) DMSO and were administered by oral gavage with a 22-gauge feeding needle. Experimental manipulations in the dark were done under dim red light transmitted through a Kodak No. 1 safelight filter (transmittance >560 nm). All animal procedures and experiments were approved by the Case Western Reserve University Animal Care Committees and conformed to recommendations of the American Veterinary Medical Association Panel on Euthanasia and the Association of Research for Vision and Ophthalmology.
Two mg of primary amines were administered by oral gavage to 4-week-old Abca4^−/−Rdh8^−/− mice, which then were kept in the dark for 24 h. Then mice were euthanized, and their livers were homogenized in 1 ml of 10 mM sodium phosphate buffer, pH 7.4, containing 50% methanol (v/v). The resulting mixture was extracted with 4 ml of hexanes. Extracts were dried in vacuo, and reconstituted in 300 μl of hexanes. 100 μl of this solution was analyzed by HPLC as described above for the LRAT activity assay.
(§3) For practical reasons, only eight of these leading compounds (QEA-B-001-NH2, B-002-NH2, C-001-NH2, C-003-NH2, C006-NH2, E-002-NH2, TEA-B-002-NH2, and C00-2-NH2) along with retinylamine as a control were selected for further testing in Abca4^−/−Rdh8^−/− mice, an animal model for light-induced retinal degeneration (Table 2). Additionally, two novel amines with moderate inhibition of RPE65 (QEA-A-006-NH2 and QEA-B-003-NI 12) and one with strong inhibition (QEA-A-005-NH2) were added to the first test group for comparison. Mice were gavaged with 1 mg of a test compound and then kept in the dark for 24 h prior to being exposed to bright light (˜10,000 lux) for 1 h. Retinal damage was assessed with OCT that measured the thickness of the outer nuclear layer and by quantification of tissue 11-cis retinal levels. An example is shown for imaging results in FIG. 4A and for 11-cis-retinal quantification in FIG. 4B. Additionally, extracts of livers obtained from treated mice were analyzed by HPLC to estimate the amounts of corresponding amides (FIG. 4C).

Abca4^−/−Rdh8^−/− mice [3] = assay: Toxicity in treated Abca4−/−Rdh8−/− mice (Table 2); type: in vivo; conditions: 4-week-old Abca4−/−Rdh8−/− mice, oral gavage
Description: as §2, §3

[4] = primary amine, decline in 11-cis-retinol production in RPE microsomes, read-out: Inhibition of RPE65

| Structure (SMILES) | protection of ONL (averaged ONL thickness by OCT) (Abca4^−/−Rdh8^−/− mice [1]) | IC50 (RPE65; [4]) [µM] | IC50 (RPE65; read-out: inhibition of RPE65) [µM] | LRAT Substrate (LRAT) [%] | Protection by amide in liver [2] | Toxicity (Abca4^−/−Rdh8^−/− mice [3]) | amidation in vivo (accumulation of amide forms in mouse liver) [2] | inhibition of RPE65 (RPE65) |
| --- | --- | --- | --- | --- | --- | --- | --- | --- |
| CC1=C(/C=C/C=C/C=C/C=C/CN)C(C)(C)CCC1 [QEA-A-005-NH2] | protected | < 10 | < 10 | 100 | Strong | None | – | – |
| CC(/C=C/C1=CCCCC1)=C\C=C\C(C)=C\CN [QEA-A-006-NH2] | – | 10 to 100 | – | 100 | None | None | not efficiently amidated | – |
| CC1=C(/C=C/C(=C/C=C/C(C)=C/CN)C(C)(C)C)CCCC1 [QEA-B-002-NH2] | – | > 200 | – | 30 | None | None | not efficiently amidated | did not inhibit |
| CC1=C(/C=C/C(=C/C=C/C(C)=C/CN)C(C)(C)C)C(C)(C)CCC1 [QEA-B-003-NH2] | – | 10 to 100 | – | 100 | Weak | None | not efficiently amidated | – |
| CC(/C=C/C=C(/C=C/c1ccccc1)C(C)(C)C)=C\CN [QEA-C-001-NH2] | – | > 200 | – | 50 | Strong | Yes | efficiently converted into amides | did not inhibit |
| CC(/C=C/C=C(/C=C/c1ccc(C(F)(F)F)cc1)c1ccccc1)=C\CN [QEA-C-003-NH2] | – | > 200 | – | 100 | None | Yes | not efficiently amidated | did not inhibit |
| COc1ccc(C(=C\C=C\C(C)=C\CN)/C=C/c2ccc(O)cc2)cc1 [QEA-C-006-NH2] | – | > 200 | – | 50 | None | None | not efficiently amidated | did not inhibit |
| COc1ccc(C(=C\C=C\C(C)=C\CN)/C=C/C2=CCCCC2)cc1 [QEA-E-002-NH2] | – | > 200 | – | 100 | Weak | None | not efficiently amidated | did not inhibit |
| CC(C)(C)C(=C\C=C\CN)/C=C/C1=CCCCC1 [TEA-B-002-NH2] | – | > 200 | – | 10 | None | Yes | not efficiently amidated | did not inhibit |
| CC(/C=C/C=C(/c1ccc2ccccc2c1)C(C)(C)C)=C\CN [TEA-C-002-NH2] | – | > 200 | – | 20 | Strong | Yes | efficiently converted into amides | did not inhibit |
